Results taken from US5852028A, “Pyrimidine carboxylates and related compounds and methods for treating inflammatory conditions” (Signal Pharmaceuticals, Inc., priority 1995, dated 1998).

Tested on: mice
Assay: not given
Settings: Morris et al., 1990; cited from earlier work

SMILES	activity in contact sensitivity model (delayed-type hypersensitivity to oxazolone)
O=P1(N(CCCl)CCCl)NCCCO1 (centres unmarked) [cyclophosphamide]	active

Tested on: NFκB/AP-1
Assay: NFκB and AP-1 luciferase reporter gene assays in PMA/PHA-stimulated Jurkat T-cells
Assay type: cell-based
Settings: Homo sapiens, stable Jurkat T-cells, PMA/PHA stimulation, 5 h
Description: Stable human Jurkat T-cells containing an NFκB binding site (from the MHC promoter) fused to a minimal SV-40 promoter driving luciferase expression were used in this experiment. Cells were split to 3×10^5 cells/mL every 2-3 days (cell concentration should not exceed 1×10^6 cells/mL to keep the cells proliferating in log phase). These cells were counted, resuspended in fresh medium containing 10% Serum-Plus at a density of 1×10^6 cells/mL and plated in 96 well round bottom plates (200 μ.LAMBDA. per well) 18 hours prior to starting the experiment.
Compounds of this invention, dissolved in dimethyl sulfoxide (3.3, 0.33 and 0.03 μg/mL), were then added to the 96 well plates containing the cells and the plates were incubated for 0.5 h at 37° C. Then 50 ng/mL of phorbol 12-myristate-13-acetate (PMA) and 1 μg/mL of phytohemagglutinin (PHA) were added to each well and the cells were incubated for an additional 5 h at 37° C. The plates were centrifuged at 2200 RPM for 3 minutes at room temperature and then the medium was removed. To each well was added 60 μL of cell lysis buffer and the plates were left at room temperature for 0.25 h. Then 40 μL of each cell extract was transferred to a black 96 well plate and 50 μL of luciferase substrate buffer was added. Luminescence was immediately measured using a Packard TopCount.
For AP-1, the assay was run as described above for NFκB except stable Jurkat T-cells were used that contained a the -73 collagenase promoter driving luciferase expression. In addition, the concentration of PMA used was 5 ng/mL.

IC50	SMILES
10000 to 30000 nM	CCOC(=O)c1cnc(C(F)(F)F)nc1NN1C(=O)C(C)=C(C)C1=O [Example 44, Ethyl 4-[N-(1'-amino-3',4'-dimethylmaleimido)]-2-trifluoromethylpyrimidine-5-carboxylate]
150 nM	CCCc1nc(NN2C(=O)C=C(C)C2=O)ncc1C(=O)OCC [Example 37, Ethyl 2-[N-(1'-aminocitraconamide)]-4-propylpyrimidine-5-carboxylate]
1000 nM	CCOC(=O)c1cnc(NN2C(=O)C=C(C)C2=O)nc1C(=O)OCC [Example 64, Diethyl 2-[N-(1'-aminocitraconamido)]-pyrimidine-4,5-dicarboxylate]
40 nM	CCOC(=O)c1cnc(NN2C(=O)C=C(C)C2=O)nc1-c1cccs1 [Example 38, Ethyl 2-[N-(1'-aminocitraconamide)]-4-(2"-thiophenyl)pyrimidine-5-carboxylate]
90 nM	CCOC(=O)c1cnc(NN2C(=O)C=C(C)C2=O)nc1C(F)(F)C(F)(F)F [Example 48, Ethyl 2-[N-(1'-aminocitraconamido)]-4-pentafluoroethylpyrimidine-5-carboxylate]
150 nM	CCOC(=O)c1cnc(NN2C(=O)C=C(C)C2=O)nc1CC [Example 36, Ethyl 2-[N-(1'-aminocitraconamide)]-4-ethylpyrimidine-5-carboxylate]
5000 to 10000 nM	CC(=O)c1cnc(NN2C(=O)C=C(C)C2=O)nc1C(F)(F)F [Example 23, 5-acetyl-2-[N-(1'-aminocitraconamide)]-4-trifluoromethylpyrimidine]
2000 nM	CCOC(=O)c1cnc(NN2C(=O)C=C(C)C2=O)nc1Cc1ccccc1 [Example 52, Ethyl 2-[N-(1'-aminocitraconamido)]-4-benzylpyrimidine-5-carboxylate]
4000 nM	CCOC(=O)c1cnc(NN2C(=O)C=C(C)C2=O)nc1C [Example 46, Ethyl 2-[N-(1'-aminocitraconamido)]-4-methylpyrimidine-5-carboxylate]
700 nM	CCOC(=O)c1cnc(NN2C(=O)C=C(C)C2=O)nc1C(F)(F)F [Example 20, Ethyl 2-[N-(1'-aminocitraconamide)]-4-trifluoromethylpyrimidine-5-carboxylate]
500 nM	CCOC(=O)c1cnc(C(F)(F)F)nc1NN1C(=O)C=C(C)C1=O [Example 21, Ethyl 4-[N-(1'-aminocitraconamide)]-2-trifluoromethylpyrimidine-5-carboxylate]
300 nM	CCOC(=O)c1cnc(N(C)N2C(=O)C=C(C)C2=O)nc1C(F)(F)F [Example 42, Ethyl 2-[N-(1'-aminocitraconamide)-N-methyl]-4-trifluoromethylpyrimidine-5-carboxylate]
5000 nM	CCOC(=O)c1cnc(NN2C(=O)C(C)=C(C)C2=O)nc1C(F)(F)F [Example 41, Ethyl 2-[N-(1'-amino-3',4'-dimethylmaleimide)]-4-trifluoromethylpyrimidine-5-carboxylate]
3000 nM	CCOC(=O)c1cnc(NN2C(=O)C=C(c3ccccc3)C2=O)nc1C(F)(F)F [Example 40, Ethyl 2-[N-(1'-amino-3'-phenylmaleimide)]-4-trifluoromethylpyrimidine-5-carboxylate]
1000 nM	CCOC(=O)c1cnc(NN2C(=O)C=C(C)C2=O)nc1-c1ccccc1 [Example 50, Ethyl 2-[N-(1'-aminocitraconamido)]-4-phenylpyrimidine-5-carboxylate]

Tested on: C3H mice
Assay: not given
Settings: Morris et al., 1990; cited from earlier work

SMILES	activity in graft vs. host model (PLN assay)
O=P1(N(CCCl)CCCl)NCCCO1 (centres unmarked) [cyclophosphamide]	active
